From patent US10757937B2, “Sulfonamides that activate ABA receptors” (The Regents of the University of California, priority 2014, dated 2020)
Read-outs that look alike come from different tables or passages of the source.

Tests used:
[1] = biological target: T1, PYL6 (Arabidopsis thaliana, UniProt Q8S8E3); assay: receptor-mediated PP2C (HAB1) inhibition in vitro assay; type: biochemical; conditions: for remaining activity at 50 µM: 50 uM of the test compound
T1 construct: 6X-His; made in house; host or cells: E. coli BL21[DE3]pLysS
T1 sequence (Q8S8E3 1-215): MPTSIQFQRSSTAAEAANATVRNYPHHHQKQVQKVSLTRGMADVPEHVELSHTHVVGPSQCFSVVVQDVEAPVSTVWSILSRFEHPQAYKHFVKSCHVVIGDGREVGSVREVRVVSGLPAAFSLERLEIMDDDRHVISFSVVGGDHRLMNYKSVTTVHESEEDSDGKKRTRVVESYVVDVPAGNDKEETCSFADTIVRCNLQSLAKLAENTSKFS
T1 sequence (Q9CAJ0 23-511 partner): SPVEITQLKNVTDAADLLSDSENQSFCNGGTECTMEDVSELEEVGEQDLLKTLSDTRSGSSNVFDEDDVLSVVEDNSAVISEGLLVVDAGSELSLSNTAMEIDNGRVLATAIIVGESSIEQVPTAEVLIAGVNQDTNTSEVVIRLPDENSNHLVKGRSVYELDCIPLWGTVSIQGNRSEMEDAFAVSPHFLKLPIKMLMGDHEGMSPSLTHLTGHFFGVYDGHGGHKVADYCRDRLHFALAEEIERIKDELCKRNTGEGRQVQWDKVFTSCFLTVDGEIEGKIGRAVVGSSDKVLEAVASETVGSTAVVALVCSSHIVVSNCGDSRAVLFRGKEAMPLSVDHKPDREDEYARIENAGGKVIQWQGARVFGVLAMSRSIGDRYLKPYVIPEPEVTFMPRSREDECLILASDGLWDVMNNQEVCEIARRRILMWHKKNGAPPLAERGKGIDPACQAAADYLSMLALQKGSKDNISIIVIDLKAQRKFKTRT
How it was run: (§1)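 Fluorogenic readout: 4-methylumbelliferyl-phosphate hydrolysis by 50 nM GST-HAB1 plus 2:1 His-receptor; Tris-OAc pH 7.9, NaCl, 1 mM MnCl2, β-ME. Compounds at 25 μM or 50 uM single dose; IC50 from dose curves for selected compounds.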

[2] = biological target: T2, PYL8 (Arabidopsis thaliana, UniProt Q9FGM1); assay: as above; type: biochemical; conditions: for remaining activity at 25 µM: compound at 25 μM, control without agonist = 100%; for remaining activity at 50 µM: 50 uM of the test compound
T2 construct: 6X-His; made in house; host or cells: E. coli BL21[DE3]pLysS
T2 sequence (Q9FGM1 1-188): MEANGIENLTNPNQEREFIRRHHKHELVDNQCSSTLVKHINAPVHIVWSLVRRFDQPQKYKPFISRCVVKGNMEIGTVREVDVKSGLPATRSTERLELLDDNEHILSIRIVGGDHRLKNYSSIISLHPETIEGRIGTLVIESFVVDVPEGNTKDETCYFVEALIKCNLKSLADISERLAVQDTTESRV
T2 sequence (Q9CAJ0 23-511 partner): T1 sequence (Q9CAJ0 23-511 partner)
How it was run: as §1

[3] = biological target: T3, PYL5 (Arabidopsis thaliana, UniProt Q9FLB1); assay: as above; type: biochemical; conditions: for remaining activity at 25 µM: compound at 25 μM, control without agonist = 100%; for remaining activity at 50 µM: 50 uM of the test compound
T3 construct: 6X-His; made in house; host or cells: E. coli BL21[DE3]pLysS
T3 sequence (Q9FLB1 1-203): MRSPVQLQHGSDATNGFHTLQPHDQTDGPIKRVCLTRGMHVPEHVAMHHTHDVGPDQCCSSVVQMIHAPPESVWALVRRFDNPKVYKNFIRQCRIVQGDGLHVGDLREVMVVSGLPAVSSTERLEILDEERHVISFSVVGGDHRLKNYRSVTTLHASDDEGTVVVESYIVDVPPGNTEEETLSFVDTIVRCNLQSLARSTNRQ
T3 sequence (Q9CAJ0 23-511 partner): T1 sequence (Q9CAJ0 23-511 partner)
How it was run: as §1

[4] = system: Arabidopsis seed germination and hypocotyl growth; assay: Arabidopsis seed germination and hypocotyl growth; type: in vivo; conditions: for minimal effective concentration: Arabidopsis thaliana; for Hypocotyl Growth Inhibition / Germination Inhibition: Germination Inhibition II, tested at 10 and 50 uM; for Hypocotyl Growth Inhibition: lowest concentration that inhibited hypocotyl growth in wells where seeds germinated; for Germination Inhibition: lowest of the two concentrations that inhibited
How it was run: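 Wild-type seeds germinated on ½× Murashige and Skoog medium with compound at 10 and 50 uM, or in a later series at 1, 5, 10, 25 and 50 uM. Reported value is the lowest tested concentration that inhibited germination or hypocotyl growth in wells where seeds germinated.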

[5] = Table VII, read-out: PP2C Dose Curves PYL6 (IC50)
[6] = Table VII, read-out: PP2C Dose Curves PYL8 (IC50)
[7] = Table VII, read-out: PP2C Dose Curves PYL5 (IC50)
[8] = Table VIII, tested at 10 or 50 μM, ABA at 1 μM, lowest inhibiting concentration, − = none, read-out: Germination Inhibition
[9] = Table VIII, tested at 10 or 50 μM, lowest inhibiting concentration, − = none, read-out: Hypocotyl Growth Inhibition
[10] = Table XII-B, calculated from dose curves, read-out: PP2C Activity (IC50 in uM) PYL6
[11] = Table XII-B, calculated from dose curves, read-out: PP2C Activity (IC50 in uM) PYL8
[12] = Table XII-B, calculated from dose curves, read-out: PP2C Activity (IC50 in uM) PYL5
[13] = Germination Effects III, tested at 1, 5, 10, 25 and 50 uM, lowest concentration inhibiting hypocotyl growth, — = none, read-out: Growth Inhibition
[14] = Germination Effects III, tested at 1, 5, 10, 25 and 50 uM, lowest inhibiting concentration, — = none, read-out: Germination Inhibition

SMILES	IC50 [1, 5] [µM]	IC50 [2, 6] [µM]	remaining activity at 25 µM [2] [%]	IC50 [3, 7] [µM]	remaining activity at 25 µM [3] [%]	minimal effective concentration [4, 8] [µM]	minimal effective concentration [4, 9] [µM]	Hypocotyl Growth Inhibition ([4]; − = none) [µM]	Germination Inhibition ([4]; − = none) [µM]	PYL5 agonist potency and selectivity ([3]; compounds with cyclopropyl rings at alpha carbon)	remaining activity at 50 µM [1] [%]	IC50 [1, 10] [µM]	remaining activity at 50 µM [2] [%]	IC50 [2, 11] [µM]	remaining activity at 50 µM [3] [%]	IC50 [3, 12] [µM]	minimal effective concentration [4, 13] [µM]	minimal effective concentration [4, 14] [µM]
COc1ccccc1C1(C(=O)NS(=O)(=O)Cc2ccc(C#N)cc2)CCC1 [Compound 42]	> 50	52.4	65	29.4	45	50	10	10	50	–	–	–	–	–	–	–	–	–
N#Cc1ccc(CS(=O)(=O)NC(=O)C2(c3ccc(F)cc3)CCCCC2)cc1 [Compound 51]	> 50	1.11	16	> 50	97	10	–	–	10	–	–	–	–	–	–	–	–	–
CC(C)COC(=O)NS(=O)(=O)Cc1ccc(C#N)cc1 [Compound 65, 2-Methylpropyl N-[(4-cyanophenyl)methanesulfonyl]carbamate]	–	–	–	–	–	–	–	–	–	–	58.9	> 50	35.8	20.4	23.6	14.2	50	–
CC1CCC(C(=O)NS(=O)(=O)Cc2ccc(C#N)cc2)(c2ccc(F)cc2)CC1 (stereo not drawn) [Compound 67, N-[(4-Cyanophenyl)methanesulfonyl]-1-(4-fluorophenyl)-4-methylcyclohexane-1-carboxamide]	–	–	–	–	–	–	–	–	–	–	46.6	–	25.8	9.6	43	25.3	10	25
CC1(C)CCC(C(=O)NS(=O)(=O)Cc2ccc(C#N)cc2)(c2ccc(F)cc2)CC1 [Compound 68, N-[(4-Cyanophenyl)methanesulfonyl]-1-(4-fluorophenyl)-4,4-dimethylcyclohexane-1-carboxamide]	–	–	–	–	–	–	–	–	–	–	46.6	–	57.5	> 50	103	> 50	10	25
N#Cc1ccc(CS(=O)(=O)NC(=O)C2(c3ccccc3)CCCCC2)cc1 [Compound 69, N-[(4-Cyanophenyl)methanesulfonyl]-1-phenylcyclohexane-1-carboxamide]	–	–	–	–	–	–	–	–	–	–	72.6	> 50	14.7	0.75	119	> 50	1	5
N#Cc1ccc(CS(=O)(=O)NC(=O)C2(c3cccs3)CCCCC2)cc1 [Compound 75, N-[(4-Cyanophenyl)methanesulfonyl]-1-(thiophen-2-yl)cyclohexane-1-carboxamide]	–	–	–	–	–	–	–	–	–	–	57.2	> 50	14.9	0.134	81.8	> 50	5	5
N#Cc1ccc(CS(=O)(=O)NC(=O)C2(c3ccsc3)CCCCC2)cc1 [Compound 78, N-[(4-Cyanophenyl)methanesulfonyl]-1-(thiophen-3-yl)cyclohexane-1-carboxamide]	–	–	–	–	–	–	–	–	–	–	44.9	25	14.3	0.073	68.5	> 50	2.5	2.5
N#Cc1ccc(CS(=O)(=O)NC(=O)C2(c3ccsc3)CCCCC2)cc1Br [Compound 106, N-[(4-Cyano-3-bromophenyl)methanesulfonyl]-1-(thiophen-3-yl)cyclohexane-1-carboxamide]	–	–	–	–	–	–	–	–	–	–	17.6	7.84	13.6	0.037	11.9	7.26	1	1

More lines, main results first:

IC50 [1, 5] [µM]	IC50 [2, 6] [µM]	remaining activity at 25 µM [2] [%]	IC50 [3, 7] [µM]	remaining activity at 25 µM [3] [%]	SMILES	minimal effective concentration [4, 8] [µM]	minimal effective concentration [4, 9] [µM]	Hypocotyl Growth Inhibition ([4]; − = none) [µM]	Germination Inhibition ([4]; − = none) [µM]	PYL5 agonist potency and selectivity ([3]; compounds with cyclopropyl rings at alpha carbon)	remaining activity at 50 µM [1] [%]	IC50 [1, 10] [µM]	remaining activity at 50 µM [2] [%]	IC50 [2, 11] [µM]	remaining activity at 50 µM [3] [%]	IC50 [3, 12] [µM]	minimal effective concentration [4, 13] [µM]	minimal effective concentration [4, 14] [µM]
> 50	3.23	24	> 50	74	N#Cc1ccc(CS(=O)(=O)NC(=O)C2(c3ccc(F)cc3)CCC2)cc1 [Compound 32]	50	10	10	50	–	–	–	–	–	–	–	–	–
34.7	> 50	62	3.91	20	N#Cc1ccc(CS(=O)(=O)NC(=O)C2(c3ccc(F)cc3)CC2)cc1 [Compound 35]	–	10	10	–	–	–	–	–	–	–	–	–	–
12.2	49.5	63	2.48	18	Cc1ccccc1C1(C(=O)NS(=O)(=O)Cc2ccc(C#N)cc2)CC1 [Compound 44]	–	50	50	–	potent and relatively selective PYL5 agonists	–	–	–	–	–	–	–	–
